Assay results from paper PMC11122421 (Marine Drugs, 2024).
Where a SMILES comes first, the peptide text is derived from it. Bridges are numbered along the chain shown (N, C = ends).

Key:
rat α7 nAChRs = molecular target: T1, rat α7 nAChRs (Rattus norvegicus, UniProt Q05941); assay: cell-based; format: cell-based
T1 construct: expressed in transfected cells; host or cells: Xenopus laevis oocytes injected with cRNA; plasmids from J. Michael McIntosh (University of Utah)

rat α6/α3β4 nAChRs = molecular target: T2, rat α6/α3β4 nAChRs (Rattus norvegicus, UniProt P04757+P12392+P43143); format: cell-based
T2 construct: expressed in transfected cells; host or cells: Xenopus laevis oocytes injected with cRNA; plasmids from J. Michael McIntosh (University of Utah)

rat α3β2 nAChR = molecular target: T3, rat α3β2 nAChR (Rattus norvegicus, UniProt P04757+P12390); assay: cell-based
T3 construct: expressed in transfected cells; host or cells: Xenopus laevis oocytes injected with cRNA; plasmids from J. Michael McIntosh (University of Utah)
T3 sequence (P04757 26-499 limits assumed): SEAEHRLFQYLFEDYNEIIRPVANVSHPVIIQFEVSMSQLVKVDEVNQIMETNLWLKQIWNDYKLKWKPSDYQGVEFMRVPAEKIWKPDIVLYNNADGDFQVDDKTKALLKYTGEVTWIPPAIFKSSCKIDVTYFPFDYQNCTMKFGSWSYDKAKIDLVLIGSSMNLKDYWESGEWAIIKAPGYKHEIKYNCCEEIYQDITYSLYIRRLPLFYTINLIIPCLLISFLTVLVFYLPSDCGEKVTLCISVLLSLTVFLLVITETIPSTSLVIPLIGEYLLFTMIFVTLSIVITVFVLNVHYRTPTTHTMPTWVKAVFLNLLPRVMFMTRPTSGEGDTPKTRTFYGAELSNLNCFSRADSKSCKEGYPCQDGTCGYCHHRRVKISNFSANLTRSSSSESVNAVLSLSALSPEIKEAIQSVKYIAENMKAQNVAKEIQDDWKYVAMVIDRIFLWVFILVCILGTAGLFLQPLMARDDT
T3 sequence (P12390 25-500 limits assumed): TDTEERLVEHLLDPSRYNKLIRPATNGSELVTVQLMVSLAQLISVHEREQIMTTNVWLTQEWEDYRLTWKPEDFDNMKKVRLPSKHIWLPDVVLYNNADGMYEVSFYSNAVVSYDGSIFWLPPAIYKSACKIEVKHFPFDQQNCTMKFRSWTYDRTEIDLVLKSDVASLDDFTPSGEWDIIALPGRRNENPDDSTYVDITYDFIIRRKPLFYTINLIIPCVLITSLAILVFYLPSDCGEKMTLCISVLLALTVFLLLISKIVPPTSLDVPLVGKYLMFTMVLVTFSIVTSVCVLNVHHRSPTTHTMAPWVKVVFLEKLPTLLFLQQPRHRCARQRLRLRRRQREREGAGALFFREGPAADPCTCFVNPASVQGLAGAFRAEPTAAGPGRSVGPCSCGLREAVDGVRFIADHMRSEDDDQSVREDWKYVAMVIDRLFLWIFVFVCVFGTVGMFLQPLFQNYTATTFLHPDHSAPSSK

T1 sequence (Q05941 23-502): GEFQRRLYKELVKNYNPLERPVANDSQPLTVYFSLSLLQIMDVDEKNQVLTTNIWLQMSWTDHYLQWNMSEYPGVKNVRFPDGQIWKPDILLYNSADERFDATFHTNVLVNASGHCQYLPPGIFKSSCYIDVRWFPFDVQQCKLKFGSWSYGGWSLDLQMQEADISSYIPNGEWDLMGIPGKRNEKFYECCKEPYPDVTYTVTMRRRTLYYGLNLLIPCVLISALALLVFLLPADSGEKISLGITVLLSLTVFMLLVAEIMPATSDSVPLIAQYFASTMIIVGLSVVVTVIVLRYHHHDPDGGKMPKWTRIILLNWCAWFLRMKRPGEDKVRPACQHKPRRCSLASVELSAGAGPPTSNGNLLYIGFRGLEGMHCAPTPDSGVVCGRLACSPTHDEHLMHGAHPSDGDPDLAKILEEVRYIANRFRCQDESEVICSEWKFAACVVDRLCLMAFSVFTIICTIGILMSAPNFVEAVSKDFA
T2 sequence (P43143+P04757 fused with the stated changes): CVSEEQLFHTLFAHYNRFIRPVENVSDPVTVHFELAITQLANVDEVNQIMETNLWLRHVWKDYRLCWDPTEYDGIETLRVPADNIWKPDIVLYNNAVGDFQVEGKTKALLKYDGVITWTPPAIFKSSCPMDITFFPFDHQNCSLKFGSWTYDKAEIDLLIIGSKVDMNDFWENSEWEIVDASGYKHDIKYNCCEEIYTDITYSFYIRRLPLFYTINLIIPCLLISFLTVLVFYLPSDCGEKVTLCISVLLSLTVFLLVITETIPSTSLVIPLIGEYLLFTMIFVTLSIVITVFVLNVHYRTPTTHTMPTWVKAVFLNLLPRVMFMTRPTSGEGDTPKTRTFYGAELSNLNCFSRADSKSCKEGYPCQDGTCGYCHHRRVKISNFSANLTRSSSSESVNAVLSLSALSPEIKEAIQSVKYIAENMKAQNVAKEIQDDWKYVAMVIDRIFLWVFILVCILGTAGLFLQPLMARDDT
T2 sequence (P12392 21-495): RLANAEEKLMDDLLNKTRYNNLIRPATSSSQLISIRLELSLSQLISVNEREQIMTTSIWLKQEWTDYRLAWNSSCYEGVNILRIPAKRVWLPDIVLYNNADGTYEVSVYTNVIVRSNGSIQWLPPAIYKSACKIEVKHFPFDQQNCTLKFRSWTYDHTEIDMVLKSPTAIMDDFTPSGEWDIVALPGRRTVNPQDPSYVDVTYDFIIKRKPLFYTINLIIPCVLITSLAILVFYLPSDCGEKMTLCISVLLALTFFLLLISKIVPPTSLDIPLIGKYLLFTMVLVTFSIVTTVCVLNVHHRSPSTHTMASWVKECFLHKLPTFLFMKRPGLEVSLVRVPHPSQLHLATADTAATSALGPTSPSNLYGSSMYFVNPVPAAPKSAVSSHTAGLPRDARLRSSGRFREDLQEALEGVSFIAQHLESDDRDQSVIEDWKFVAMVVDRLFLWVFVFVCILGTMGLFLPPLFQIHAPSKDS

`C[C@@H]1NC(=O)[C@@H]2CSSC[C@H](NC(=O)CN)C(=O)N[C@@H](CSSC[C@@H](C(N)=O)NC(=O)[C@H](Cc3c[nH]cn3)NC(=O)[C@H](CCC(=O)O)NC(=O)[C@H](Cc3c[nH]cn3)NC1=O)C(=O)N[C@@H](CO)C(=O)N[C@@H](CC(N)=O)C(=O)N1CCC[C@H]1C(=O)N1CCC[C@H]1C(=O)N2` [[Q1G, ΔR14]LvIB] (H-GCCSNPPCAHEHC-NH2; disulfide 2-8, 3-13) was tested, and the “Hill Slope” value (rat α7 nAChRs) was 0.99 (0.8–1.19), the “inhibition rate of ACh-evoked current” value (rat α7 nAChRs) was 98 ± 0.12% and the “time to ~90% current restoration after block (recovery/washout)” value (rat α7 nAChRs) was ≤ 17 min. The inhibition rate (rat α6/α3β4 nAChRs) was 88 ± 5% and the inhibition rate (rat α3β2 nAChR) was 97 ± 2%.
